Results reported in patent US20050050594A1, “Tryptophan synthase as a site of herbicide action” (priority 1999, published 2005).

Assays:
Format in all cases: in vivo
[1] = tested on: Arabidopsis thaliana; experiment: Herbicidal activity and tryptophan reversal on Arabidopsis grown on agar medium; parameters: key: 0 - no effect; 9 - total kill; C - chlorotic seedlings 4-6 days after treatment
Procedure: In this experiment, TS inhibitors were tested on Arabidopsis thaliana grown Murashige minimal organics medium, (obtained from Life Technologies, Grand Island, N.Y.), containing 0.7% agar. Compounds were tested at different concentrations to assess their herbicidal activity.

[2] = tested on: mustard, hemp sesbania, soybean, lambsquarters, pigweed, bindweed, morningglory, corn, green foxtail, velvetleaf; experiment: Early injury symptoms and species effects on postemergence treated plants; conditions: post emergence, 4 or 8 kg/ha; for Symptoms 6 DAT: 6 days after application
Description: Herbicidal compounds of the invention were examined for their herbicidal effects by observing symptoms on postemergence treated plants.
Early injury symptoms caused by the TS-inhibiting herbicides of the invention are represented in Table 13. Symptoms and species effects are represented through the herbicidal activity {4-[(o-hydroxyphenyl)thio]butyl}-phosphonic acid, applied at 4 or 8 kg/ha.

[3] = tested on: a variety of dicotyledonous and monocotyledonous plants; experiment: Postemergence greenhouse herbicidal test; conditions: Postemergence application
Procedure: The herbicidal activity of the compounds was tested as described in the U.S. Pat. No. 5,635,449. […] In the tests, seedling plants are grown in jiffy flats for about two weeks. The test compounds are dispersed in 50/50 acetone/water mixtures containing 0.5% TWEEN®20, a polyoxyethylene sorbitan monolaurate surfactant of Atlas Chemical Industries, in sufficient quantities to provide the equivalent of about 1.0 kg to 8.0 kg per hectare of test compound when applied to the plants through a spray nozzle operating at 40 psi for a predetermined time. After spraying, the plants are placed on greenhouse benches and are cared for in the usual manner, commensurate with conventional greenhouse practices. From four to five weeks after treatment, the seedling plants are examined and rate according to the rating system set forth below.

For `O=P(O)(O)CCCCSc1ccccc1O` [Compound 22, {4-[(o-hydroxyphenyl)thio]butyl}-phosphonic acid], the herbicidal injury rating ([1]; herbicide 7.8 μM) was 0, the herbicidal injury rating ([1]; herbicide 16 μM) was 1 and the herbicidal injury rating ([1]; herbicide 31 μM) was 1C. The herbicidal injury rating ([1]; herbicide 63 μM) was 3C, the herbicidal injury rating ([1]; herbicide 125 μM) was 3C and the herbicidal injury rating ([1]; herbicide 250 μM) was 3C. For the same molecule, the herbicidal injury rating ([1]; herbicide 500 μM) was 5C, the herbicidal injury rating ([1]; herbicide 1000 μM) was 6C and the herbicidal rating ([1]; herbicide 7.8 mM, no Trp) was 5. For the same molecule, the herbicidal rating ([1]; herbicide 16 mM, no Trp) was 5, the herbicidal rating ([1]; herbicide 31 mM + 100 μM Trp) was 0 and the herbicidal rating ([1]; herbicide 31 mM, no Trp) was 6. The herbicidal rating ([1]; herbicide 63 mM + 100 μM Trp) was 1, the herbicidal rating ([1]; herbicide 63 mM, no Trp) was 6 and the herbicidal rating ([1]; herbicide 125 mM + 100 μM Trp) was 3. The herbicidal rating ([1]; herbicide 125 mM, no Trp) was 6, the herbicidal rating ([1]; herbicide 250 mM + 100 μM Trp) was 5 and the herbicidal rating ([1]; herbicide 250 mM, no Trp) was 6. For the same molecule, the herbicidal rating ([1]; herbicide 500 mM + 100 μM Trp) was 3, the herbicidal rating ([1]; herbicide 500 mM, no Trp) was 6 and the herbicidal rating ([1]; herbicide 1000 mM + 100 μM Trp) was 3. The herbicidal rating ([1]; herbicide 1000 mM, no Trp) was 7, the “Symptoms 6 DAT” value ([2]; height reduction) was “height reduction: lambs quarter,” and the “Symptoms 6 DAT” value ([2]; increased branching) was “increased branching: soybean”. The “Symptoms 6 DAT” value ([2]; leaf mottling) was “leaf mottling: mustard, soybean,”, the “Symptoms 6 DAT” value ([2]; leaf yellowing) was “leaf yellowing: mustard, hemp” and the “Symptoms 6 DAT” value ([2]; shoot tip yellowing) was “shoot tip yellowing: hemp sesbania”. The “Symptoms 6 DAT” value ([2]; tip necrosis) was “tip necrosis: hemp sesbania”, the “Species effects, 13 DAT: bindweed” value ([2]; 13 days after application) was “bindweed: mottling, some necrosis,” and the “Species effects, 13 DAT: corn” value ([2]; 13 days after application) was “corn: unaffected”. For the same molecule, the “Species effects, 13 DAT: green foxtail” value ([2]; 13 days after application) was “green foxtail: stunted, yellowing, red”, the “Species effects, 13 DAT: hemp sesbania” value ([2]; 13 days after application) was “hemp sesbania: no growth between 6” and the “Species effects, 13 DAT: lambsquarters height reduction” value ([2]; 13 days after application) was “lambsquarters: 40% height reduction,”. The “Species effects, 13 DAT: pigweed height reduction” value ([2]; 13 days after application) was “pigweed: 25% height reduction”, the “Species effects, 13 DAT: soybean” value ([2]; 13 days after application) was “soybean: shoot nearly dead except” and the “Species effects, 13 DAT: velvetleaf height reduction” value ([2]; 13 days after application) was “velvetleaf: 50% height reduction”. For the same molecule, the “Herbicidal Activity” value [3] was “+++ (+++ = 80-100% injury to two species)”.
